According to PubChem BioAssay AID248 (DTP/NCI, 2004):
Several values for one entry are separate records, joined by “and”; a condition that tells them apart may be missing. Identical values can stand only once. Toxic doses and inconclusive results are not listed.

System: L1210 leukemia ip in BDF1 mice, survival T/C
Assay: NCI In Vivo Anticancer Drug Screen. Data for tumor model L1210 Leukemia (intraperitoneal) in B6D2F1 (BDF1) mice
Settings: endpoint: mean survival time, higher = longer survival
Summary of the method: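 Value reflects the ratio of survival in compound-treated mice to survival in vehicle-treated controls, with both groups carrying the same transplanted tumor.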

[1] = dose: 100.0 mg/kg/injection, schedule: Q01DX009 (ip), vehicle: saline with Tween-80
[2] = dose: 200.0 mg/kg/injection, schedule: Q01DX009 (ip), vehicle: saline with Tween-80
[3] = dose: 400.0 mg/kg/injection, schedule: Q01DX009 (ip), vehicle: saline with Tween-80
[4] = dose: 50.0 mg/kg/injection, schedule: Q01DX001 (ip), vehicle: carboxymethylcellulose (CMC)
[5] = dose: 100.0 mg/kg/injection, schedule: Q01DX001 (ip), vehicle: carboxymethylcellulose (CMC)
[6] = dose: 200.0 mg/kg/injection, schedule: Q01DX001 (ip), vehicle: carboxymethylcellulose (CMC)
[7] = dose: 400.0 mg/kg/injection, schedule: Q01DX001 (ip), vehicle: carboxymethylcellulose (CMC)
[8] = dose: 100.0 mg/kg/injection, schedule: Q01DX001 (ip), vehicle: saline
[9] = dose: 200.0 mg/kg/injection, schedule: Q01DX001 (ip), vehicle: saline
[10] = dose: 200.0 mg/kg/injection, schedule: Q04DX003 (ip), vehicle: saline with Tween-80
[11] = dose: 100.0 mg/kg/injection, schedule: Q04DX002 (ip), vehicle: Klucel (hydroxypropylcellulose) (HPC)
[12] = dose: 200.0 mg/kg/injection, schedule: Q04DX002 (ip), vehicle: Klucel (hydroxypropylcellulose) (HPC)

CCOC(=O)C(C#N)CCC#N (centres undefined)
T/C [1]: 113 % of control | T/C [2]: 98 % of control | T/C [3]: 104 % of control

O=S(=O)(O)CCS(=O)(=O)O
T/C [4]: 97 % of control | T/C [5]: 100 % of control | T/C [6]: 97 % of control | T/C [7]: 97 % of control

CC1(C)N=C(N)N=C(N)N1c1ccc(OCCOc2ccc(S(=O)(=O)F)cc2)c(Cl)c1
T/C (dose: 33.0 mg/kg/injection, schedule: Q04DX003 (ip), vehicle: Klucel (hydroxypropylcellulose) (HPC)): 102 % of control | T/C (dose: 33.0 mg/kg/injection, schedule: Q04DX003 (ip), vehicle: saline sonified): 117 % of control | T/C (dose: 50.0 mg/kg/injection, schedule: Q01DX009 (ip), vehicle: saline sonified): 152 % of control | T/C (dose: 50.0 mg/kg/injection, schedule: Q04DX003 (ip), vehicle: Klucel (hydroxypropylcellulose) (HPC)): 112 % of control | T/C (dose: 75.0 mg/kg/injection, schedule: Q04DX003 (ip), vehicle: Klucel (hydroxypropylcellulose) (HPC)): 112 % of control | T/C (dose: 75.0 mg/kg/injection, schedule: Q04DX003 (ip), vehicle: saline sonified): 113 % of control | T/C (dose: 100.0 mg/kg/injection, schedule: Q01DX009 (ip), vehicle: saline sonified): 109 % of control | T/C (dose: 100.0 mg/kg/injection, schedule: Q04DX003 (ip), vehicle: other): 96 % of control | T/C (dose: 200.0 mg/kg/injection, schedule: Q04DX003 (ip), vehicle: other): 103 % of control | T/C (dose: 400.0 mg/kg/injection, schedule: Q04DX003 (ip), vehicle: other): 96 % of control

COc1ccc(-c2sc(C)c(-c3ccc(OC)cc3)c2C)cc1
T/C [8]: 96 % of control | T/C [9]: 96 % of control | T/C (dose: 400.0 mg/kg/injection, schedule: Q01DX001 (ip), vehicle: saline): 94 % of control

O=C(Nc1ccc(C2=NCCN2)cc1)c1cccc2c(C(=O)Nc3ccc(C4=NCCN4)cc3)cccc12
T/C (dose: 9.7 mg/kg/injection, schedule: Q01DX Z (ip), vehicle: carboxymethylcellulose (CMC)): 94 % of control | T/C (dose: 14.6 mg/kg/injection, schedule: Q01DX Z (ip), vehicle: carboxymethylcellulose (CMC)): 107 % of control | T/C (dose: 22.0 mg/kg/injection, schedule: Q01DX Z (ip), vehicle: carboxymethylcellulose (CMC)): 122 % of control | T/C (dose: 30.0 mg/kg/injection, schedule: Q01DX Z (ip), vehicle: carboxymethylcellulose (CMC)): 156 % of control | T/C (dose: 33.0 mg/kg/injection, schedule: Q01DX Z (ip), vehicle: carboxymethylcellulose (CMC)): 124 % of control | T/C (dose: 49.0 mg/kg/injection, schedule: Q01DX Z (ip), vehicle: carboxymethylcellulose (CMC)): 155 % of control | T/C (dose: 60.0 mg/kg/injection, schedule: Q01DX Z (ip), vehicle: carboxymethylcellulose (CMC)): 204 % of control | T/C (dose: 74.0 mg/kg/injection, schedule: Q01DX Z (ip), vehicle: carboxymethylcellulose (CMC)): 155 % of control | T/C (dose: 111.0 mg/kg/injection, schedule: Q01DX Z (ip), vehicle: carboxymethylcellulose (CMC)): 176 % of control | T/C (dose: 120.0 mg/kg/injection, schedule: Q01DX Z (ip), vehicle: carboxymethylcellulose (CMC)): 175 % of control

CC(=O)Nc1ccn(CC(=O)c2ccco2)c(=O)n1
T/C [1]: 102 % of control | T/C (dose: 100.0 mg/kg/injection, schedule: Q04DX003 (ip), vehicle: saline with Tween-80): 98 % of control | T/C [2]: 102 % of control | T/C [10]: 90 % of control | T/C [3]: 104 % of control | T/C (dose: 400.0 mg/kg/injection, schedule: Q04DX003 (ip), vehicle: saline with Tween-80): 93 % of control

COc1cc(Nc2ncnc(N)c2[N+](=O)[O-])cc(OC)c1OC
T/C [10]: 88 % of control

O=C1CC2OCC=C3CN4CCC56c7ccccc7N1C5C2C3CC46 (centres undefined) (tested in a mixture with another compound)
T/C (dose: 0.12 mg/kg/injection, schedule: Q04DX003 (ip), vehicle: saline + Tween-80 + alkali): 102 % of control | T/C (dose: 0.12 mg/kg/injection, schedule: Q04DX003 (ip), vehicle: saline): 104 % of control | T/C (dose: 0.19 mg/kg/injection, schedule: Q04DX003 (ip), vehicle: alcohol): 106 % of control | T/C (dose: 0.19 mg/kg/injection, schedule: Q04DX003 (ip), vehicle: saline + Tween-80 + alkali): 100 % of control | T/C (dose: 0.19 mg/kg/injection, schedule: Q04DX003 (ip), vehicle: saline): 104 % of control | T/C (dose: 0.25 mg/kg/injection, schedule: Q04DX003 (ip), vehicle: Klucel (hydroxypropylcellulose) (HPC)): 101 % of control | T/C (dose: 0.28 mg/kg/injection, schedule: Q04DX003 (ip), vehicle: saline + Tween-80 + alkali): 98 % of control | T/C (dose: 0.28 mg/kg/injection, schedule: Q04DX003 (ip), vehicle: saline): 104 % of control | T/C (dose: 0.39 mg/kg/injection, schedule: Q01DX009 (ip), vehicle: saline): 98 % of control and 95 % of control | T/C (dose: 0.39 mg/kg/injection, schedule: Q04DX003 (ip), vehicle: alcohol): 103 % of control | T/C (dose: 0.5 mg/kg/injection, schedule: Q04DX003 (ip), vehicle: Klucel (hydroxypropylcellulose) (HPC)): 93 % of control | T/C (dose: 0.75 mg/kg/injection, schedule: Q01DX009 (ip), vehicle: Klucel (hydroxypropylcellulose) (HPC)): 92 % of control | T/C (dose: 0.78 mg/kg/injection, schedule: Q01DX009 (ip), vehicle: saline): 101 % of control and 110 % of control | T/C (dose: 0.78 mg/kg/injection, schedule: Q04DX003 (ip), vehicle: alcohol): 103 % of control | T/C (dose: 0.78 mg/kg/injection, schedule: Q04DX003 (ip), vehicle: saline + alcohol): 102 % of control | T/C (dose: 0.78 mg/kg/injection, schedule: Q04DX003 (ip), vehicle: saline): 100 % of control | T/C (dose: 1.0 mg/kg/injection, schedule: Q04DX003 (ip), vehicle: Klucel (hydroxypropylcellulose) (HPC)): 101 % of control | T/C (dose: 1.5 mg/kg/injection, schedule: Q01DX009 (ip), vehicle: Klucel (hydroxypropylcellulose) (HPC)): 97 % of control | T/C (dose: 1.5 mg/kg/injection, schedule: Q04DX003 (ip), vehicle: Klucel (hydroxypropylcellulose) (HPC)): 100 % of control | T/C (dose: 1.56 mg/kg/injection, schedule: Q01DX009 (ip), vehicle: saline): 90 % of control and 100 % of control | T/C (dose: 1.56 mg/kg/injection, schedule: Q04DX003 (ip), vehicle: alcohol): 93 % of control | T/C (dose: 1.56 mg/kg/injection, schedule: Q04DX003 (ip), vehicle: saline + alcohol): 93 % of control | T/C (dose: 1.56 mg/kg/injection, schedule: Q04DX003 (ip), vehicle: saline): 93 % of control | T/C (dose: 6.0 mg/kg/injection, schedule: Q04DX003 (ip), vehicle: Klucel (hydroxypropylcellulose) (HPC)): 110 % of control

O=[N+]([O-])c1ccc(N/N=C2\Cc3ccccc3Cc3ccccc32)c([N+](=O)[O-])c1
T/C (dose: 50.0 mg/kg/injection, schedule: Q01DX001 (ip), vehicle: Klucel (hydroxypropylcellulose) (HPC)): 90 % of control | T/C (dose: 100.0 mg/kg/injection, schedule: Q01DX001 (ip), vehicle: Klucel (hydroxypropylcellulose) (HPC)): 98 % of control | T/C (dose: 200.0 mg/kg/injection, schedule: Q01DX001 (ip), vehicle: Klucel (hydroxypropylcellulose) (HPC)): 90 % of control

O=C(OCC(F)(F)C(F)(F)C(F)(F)C(F)F)c1ccccc1C(=O)OCC(F)(F)C(F)(F)C(F)(F)C(F)F
T/C [4]: 91 % of control | T/C [5]: 107 % of control | T/C [6]: 105 % of control | T/C [7]: 94 % of control

O=[N+]([O-])c1ccc2c(N=Nc3c(O)ccc4ccccc34)c(O)cc(S(=O)(=O)O)c2c1
T/C (dose: 50.0 mg/kg/injection, schedule: Q04DX003 (ip), vehicle: saline): 98 % of control | T/C [8]: 92 % of control | T/C [9]: 92 % of control | T/C (dose: 200.0 mg/kg/injection, schedule: Q04DX003 (ip), vehicle: saline): 92 % of control

O=[N+]([O-])c1cc2ccccc2o1
T/C (dose: 50.0 mg/kg/injection, schedule: Q04DX002 (ip), vehicle: Klucel (hydroxypropylcellulose) (HPC)): 88 % of control | T/C [11]: 97 % of control | T/C [12]: 93 % of control

NC(=O)N/N=C1\CC2CC1C1C=CCC21 (centres undefined)
T/C [4]: 102 % of control | T/C [5]: 93 % of control | T/C [6]: 102 % of control

CS(=O)(=O)c1ccc(Nn2c(N)nn(-c3ccc(S(C)(=O)=O)cc3)c2=N)cc1
T/C (dose: 50.0 mg/kg/injection, schedule: Q01DX009 (ip), vehicle: saline): 93 % of control and 95 % of control and 96 % of control | T/C (dose: 100.0 mg/kg/injection, schedule: Q01DX009 (ip), vehicle: saline): 95 % of control and 86 % of control | T/C (dose: 200.0 mg/kg/injection, schedule: Q01DX009 (ip), vehicle: saline): 97 % of control and 107 % of control and 92 % of control

CC(=O)Nc1ccc(Cl)c(F)c1Cl
T/C [11]: 104 % of control | T/C [12]: 93 % of control | T/C (dose: 400.0 mg/kg/injection, schedule: Q04DX002 (ip), vehicle: Klucel (hydroxypropylcellulose) (HPC)): 107 % of control
